According to patent publication US9073864B2, “Aromatic ring compound” (TAKEDA PHARMACEUTICAL COMPANY LIMITED, priority 2012, dated 2015):

Each molecule was assayed on Wistar fatty rat (assay: Hypoglycemic action in Wistar fatty rat (single administration)). Details: 10 mg/kg oral, 4 hr after administration, male Wistar fatty rats, change relative to non-administration group.
Format: in vivo
Experimental: Hypoglycemic Action in Wistar Fatty Rat (Single Administration)
Wistar fatty rats (male, 25- to 26-week-old) were orally administered with a 0.5% methylcellulose suspension containing a test compound (10 mg/kg body weight) (test compound administration group, 4-6 per group) or 0.5% methylcellulose solution (test compound non-administration group, 4-6 per group), blood samples were collected from the rat tail vein 4 hr after the administration, and the hypoglycemic action was evaluated using the blood. The blood glucose was measured using Model 7180 HITACHI automatic analyzer (Hitachi, Ltd.).
In each animal of the test compound administration group and the test compound non-administration group, changes in the blood glucose level from that before administration was calculated, the difference between the “average change of test compound non-administration group” and the “change in each animal of test compound administration group” was calculated as the “change in blood glucose due to test compound”, and the average of each group was taken as the “blood glucose change value (mg/dL)”.

Row | SMILES | blood glucose change value [mg/dL]
1 | Cc1cc(-c2ccc(C(F)(F)F)cn2)ccc1C(CCC(F)(F)F)Nc1ccc(C(=O)N2CCC[C@@H](C(=O)O)C2)cc1 (stereo partly drawn) [Example 1, (3R)-1-(4-((4,4,4-trifluoro-1-(2-methyl-4-(5-(trifluoromethyl)pyridin-2-yl)phenyl)butyl)amino)benzoyl)piperidine-3-carboxylic acid] | -162.9
2 | Cc1cc(-c2ncc(Cl)cn2)ccc1C(CCC(F)(F)F)Nc1ccc(C(=O)N2CCC[C@@H](C(=O)O)C2)cc1 (stereo partly drawn) [Example 2, (3R)-1-(4-((1-(4-(5-chloropyrimidin-2-yl)-2-methylphenyl)-4,4,4-trifluorobutyl)amino)benzoyl)piperidine-3-carboxylic acid] | -149.8
3 | CCc1cnc(-c2ccc(C(CCC(F)(F)F)Nc3ccc(C(=O)N4CCC[C@@H](C(=O)O)C4)cc3)c(C)c2)nc1 (stereo partly drawn) [Example 4, (3R)-1-(4-((1-(4-(5-ethylpyrimidin-2-yl)-2-methylphenyl)-4,4,4-trifluorobutyl)amino)benzoyl)piperidine-3-carboxylic acid] | -130.4

The molecules below were run against T1, human type glucagon receptor (Homo sapiens, UniProt P47871) (assay: Measurement of glucagon binding inhibitory activity ([125I]-glucagon, receptor membrane protein)). Details: test compound 10 μM; 0.4% DMSO alone = 0%, unlabeled glucagon 1 μM = 100%; read-out: inhibitory rate (%) at 10 μM.
T1 construct: an about 1.4 kb DNA fragment containing glucagon receptor gene was recovered from the gel; expressed in transfected cells; host or cells: FreeStyle CHO cells (transient expression); membrane fraction prepared by homogenisation and ultracentrifugation
T1 sequence (P47871 26-477): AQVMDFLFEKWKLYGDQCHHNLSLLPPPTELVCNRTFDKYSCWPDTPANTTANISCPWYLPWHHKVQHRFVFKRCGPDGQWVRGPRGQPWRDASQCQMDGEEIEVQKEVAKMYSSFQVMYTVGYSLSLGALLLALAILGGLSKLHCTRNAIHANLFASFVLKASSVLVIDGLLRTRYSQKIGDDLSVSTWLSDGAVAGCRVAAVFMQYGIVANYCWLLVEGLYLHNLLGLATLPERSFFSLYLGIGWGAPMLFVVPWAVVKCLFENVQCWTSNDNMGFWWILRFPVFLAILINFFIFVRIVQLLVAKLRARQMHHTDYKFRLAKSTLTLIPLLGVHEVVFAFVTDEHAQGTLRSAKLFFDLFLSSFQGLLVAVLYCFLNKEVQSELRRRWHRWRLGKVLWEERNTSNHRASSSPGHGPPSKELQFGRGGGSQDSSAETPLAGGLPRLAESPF
Experimental: The glucagon binding inhibitory action of the compound of the present invention was evaluated by the following method.
(1) Cloning of Human Glucagon Receptor Gene
Human glucagon receptor gene was cloned by PCR reaction using human pancreas Marathon-ready cDNA (Clontech Laboratories, Inc.) as a template and the following primer set.
The PCR reaction was performed using Advantage 2 polymerase (Clontech Laboratories, Inc.) and according to the attached protocol. The obtained PCR product was subjected to agarose gel (1%) electrophoresis, an about 1.4 kb DNA fragment containing glucagon receptor gene was recovered from the gel, and digested with restriction enzymes EcoRI and NotI. The restriction enzyme-treated DNA was subjected to agarose gel (1%) electrophoresis, an about 1.4 kb DNA fragment was recovered and ligated with plasmid pMSRaneo digested with restriction enzymes EcoRI and NotI to give human type glucagon receptor expression plasmid DNA “pMSRaneo/hGCGR”. The base sequence of the inserted fragment was confirmed to be identical with the object sequence.
(2) Preparation of Glucagon Receptor Membrane Protein
Human type glucagon receptor was expressed using FreeStyle CHO Expression System (Invitrogen™). According to the manual attached to the FreeStyle CHO Expression System, and using the human type glucagon receptor expression plasmid DNA “pMSRaneo/hGCGR” produced in the above-mentioned (1), transient expression was performed by FreeStyle CHO cells. The above-mentioned DNA was transfected, and shaking culture was performed at 37° C., 8% CO2, 125 rpm for 2 days. The culture medium was centrifuged at 2,000 rpm for 10 min and the cells were recovered. The recovered cells were washed with PBS, suspended in homogenate buffer [10 mM NaHCO3 (pH 7.4), 1 mM EDTA, complete EDTA-free (Roche, Ltd., 1 tablet/50 ml)], and the cells were disrupted by a Polytron cell disruption apparatus (Kinematica AG). The disruption solution was centrifuged at 2,000 rpm for 10 min, and the supernatant was recovered. The supernatant was centrifuged at 35,000 rpm for 60 min, and the precipitate was suspended in a buffer [20 mM Tris-HCl (pH 7.4), 5 mM EDTA, complete EDTA-free (Roche, Ltd., 1 tablet/50 ml)] to give a glucagon receptor membrane protein.
(3) Measurement of Glucagon Binding Inhibitory Activity
The reaction was started by adding 50 μl of a glucagon receptor membrane protein solution diluted with a reaction buffer [50 mM HEPES (pH 7.4), 5 mM EGTA, 5 mM magnesium chloride, 0.1% BSA, 0.005% Tween20] to 100 μg/ml, 25 μl of a test compound solution containing 0.4% DMSO, which solution was prepared with the reaction buffer to a compound concentration of 40 μM, and 25 μl of radiolabeled glucagon ([^125I]-Receptor Grade Glucagon; Perkin Elmer Inc.) diluted with the reaction buffer to 200 pM to each well of a 96 well plate (Corning Incorporated). The plate was stood at room temperature for 90 min, then the reaction solution was transferred from the reaction plate onto a 96 well unifilter GF/C plate (Perkin Elmer Inc.) by a cell harvester (Perkin Elmer Inc.), and suctioned to collect a membrane fraction on the filter. The filter was immersed in a 0.3% polyethyleneimine solution in advance to prevent non-specific adsorption of the labeled ligand. The filter was washed 4 times with the reaction buffer, and dried at 42° C. for 2 hr. To each well was added 25 μl of scintillator (MicroScint0; Perkin Elmer Inc.), and the amount of fluorescence was measured by a microplate scintillation counter (TopCount NXT™; Perkin Elmer Inc.).
The inhibitory rate (%) of the well added with the test compound (10 μM; containing 0.4% DMSO solution) was calculated wherein the reaction rate of the well added with 0.4% DMSO alone was 0% inhibitory rate and that of the well added with unlabeled glucagon (final concentration 1 μM) was 100% inhibitory rate.

Row | inhibition at 10 µM [%] | SMILES
4 | 91 | Cc1cc(-c2ccc(C#N)cc2)ccc1C(CCC(F)(F)F)Nc1ccc(C(=O)N2CCC[C@@H](C(=O)O)C2)cc1 (stereo partly drawn) [Example 8, (3R)-1-(4-((1-(4′-cyano-3-methylbiphenyl-4-yl)-4,4,4-trifluorobutyl)amino)benzoyl)piperidine-3-carboxylic acid]
5 | 92 | Cc1cc(-c2ccc(Cl)cc2)ccc1C(CCC(F)(F)F)Nc1ccc(C(=O)N2CCC[C@@H](C(=O)O)C2)cn1 (stereo partly drawn) [Example 15, (3R)-1-((6-((1-(4′-chloro-3-methylbiphenyl-4-yl)-4,4,4-trifluorobutyl)amino)pyridin-3-yl)carbonyl)piperidine-3-carboxylic acid]
6 | 93 | Cc1cc(-c2ccc(Cl)cc2)ccc1C(Nc1ccc(C(=O)N2CCC[C@@H](C(=O)O)C2)cc1)C1CCCCC1 (stereo partly drawn) [Example 16, (3R)-1-(4-(((4′-chloro-3-methylbiphenyl-4-yl)(cyclohexyl)methyl)amino)benzoyl)piperidine-3-carboxylic acid]
7 | 92 | Cc1cc(-c2ccc(Cl)cc2)ccc1C(Nc1ccc(C(=O)N2CCC[C@@H](C(=O)O)C2)cn1)C1CCCCC1 (stereo partly drawn) [Example 17, (3R)-1-((6-(((4′-chloro-3-methylbiphenyl-4-yl)(cyclohexyl)methyl)amino)pyridin-3-yl)carbonyl)piperidine-3-carboxylic acid]
8 | 86 | Cc1cc(C(CCC(F)(F)F)Nc2ccc(C(=O)N3CCC[C@@H](C(=O)O)C3)cc2)cc(C)c1-c1ccc(Cl)cc1 (stereo partly drawn) [Example 18, (3R)-1-(4-((1-(4′-chloro-2,6-dimethylbiphenyl-4-yl)-4,4,4-trifluorobutyl)amino)benzoyl)piperidine-3-carboxylic acid]
9 | 84 | O=C(O)[C@@H]1CCCN(C(=O)c2ccc(NC(c3ccc(-c4ccc(Cl)cc4)cc3)C3CCCCC3)cc2)C1 (stereo partly drawn) [Example 24, (3R)-1-(4-(((4′-chlorobiphenyl-4-yl)(cyclohexyl)methyl)amino)benzoyl)piperidine-3-carboxylic acid]
10 | 71 | O=C(O)[C@@H]1CCCN(C(=O)c2ccc(NC(CCC(F)(F)F)c3ccc(-c4ccccc4)cn3)cc2)C1 (stereo partly drawn) [Example 25, (3R)-1-(4-((4,4,4-trifluoro-1-(5-phenylpyridin-2-yl)butyl)amino)benzoyl)piperidine-3-carboxylic acid]
11 | 86 | O=C(O)[C@@H]1CCCN(C(=O)c2ccc(NC(CCC(F)(F)F)c3ccc(-c4ccc(Cl)cc4)cc3)cc2)C1 (stereo partly drawn) [Example 27, (3R)-1-(4-((1-(4′-chlorobiphenyl-4-yl)-4,4,4-trifluorobutyl)amino)benzoyl)piperidine-3-carboxylic acid]
12 | 98 | O=C(O)[C@@H]1CCCN(C(=O)c2ccc(NC(CCC(F)(F)F)c3ccc(-c4ccc(Cl)cc4)cc3)nc2)C1 (stereo partly drawn) [Example 28, (3R)-1-((6-((1-(4′-chlorobiphenyl-4-yl)-4,4,4-trifluorobutyl)amino)pyridin-3-yl)carbonyl)piperidine-3-carboxylic acid]
13 | 90 | Cc1cc(-n2cc3c(n2)CCCC3)ccc1C(Nc1ccc(C(=O)N2CCC[C@@H](C(=O)O)C2)cc1)C(C)C (stereo partly drawn) [Example 117, (3R)-1-(4-((2-methyl-1-(2-methyl-4-(4,5,6,7-tetrahydro-2H-indazol-2-yl)phenyl)propyl)amino)benzoyl)piperidine-3-carboxylic acid]

More lines, now with the values behind:

Row | SMILES | inhibition at 10 µM [%]
14 | Cc1cc(-c2ccc(C(F)(F)F)cn2)ccc1C(CCC(F)(F)F)Nc1ccc(C(=O)N2CCC[C@@H](C(=O)O)C2)cc1 (stereo partly drawn) [Example 1, (3R)-1-(4-((4,4,4-trifluoro-1-(2-methyl-4-(5-(trifluoromethyl)pyridin-2-yl)phenyl)butyl)amino)benzoyl)piperidine-3-carboxylic acid] | 84
15 | Cc1cc(-c2ncc(Cl)cn2)ccc1C(CCC(F)(F)F)Nc1ccc(C(=O)N2CCC[C@@H](C(=O)O)C2)cc1 (stereo partly drawn) [Example 2, (3R)-1-(4-((1-(4-(5-chloropyrimidin-2-yl)-2-methylphenyl)-4,4,4-trifluorobutyl)amino)benzoyl)piperidine-3-carboxylic acid] | 92
16 | CCc1cnc(-c2ccc(C(CCC(F)(F)F)Nc3ccc(C(=O)N4CCC[C@@H](C(=O)O)C4)cc3)c(C)c2)nc1 (stereo partly drawn) [Example 4, (3R)-1-(4-((1-(4-(5-ethylpyrimidin-2-yl)-2-methylphenyl)-4,4,4-trifluorobutyl)amino)benzoyl)piperidine-3-carboxylic acid] | 95
17 | Cc1cc(-c2ccc(C(F)(F)F)nc2)ccc1C(CCC(F)(F)F)Nc1ccc(C(=O)N2CCC[C@@H](C(=O)O)C2)cc1 (stereo partly drawn) [Example 14, (3R)-1-(4-((4,4,4-trifluoro-1-(2-methyl-4-(6-(trifluoromethyl)pyridin-3-yl)phenyl)butyl)amino)benzoyl)piperidine-3-carboxylic acid] | 88
18 | Cc1cc(-n2ccc(C(C)C)n2)ccc1C(CCC(F)(F)F)Nc1ccc(C(=O)N2CCC[C@@H](C(=O)O)C2)cc1 (stereo partly drawn) [Example 22, (3R)-1-(4-((4,4,4-trifluoro-1-(4-(3-isopropyl-1H-pyrazol-1-yl)-2-methylphenyl)butyl)amino)benzoyl)piperidine-3-carboxylic acid] | 89
19 | Cc1cc(-c2ncc(C(C)(C)C)o2)ccc1C(CCC(F)(F)F)Nc1ccc(C(=O)N2CCC[C@@H](C(=O)O)C2)cc1 (stereo partly drawn) [Example 23, (3R)-1-(4-((1-(4-(5-tert-butyl-1,3-oxazol-2-yl)-2-methylphenyl)-4,4,4-trifluorobutyl)amino)benzoyl)piperidine-3-carboxylic acid] | 90
20 | Cc1cc(-c2ccc(C(F)(F)F)cn2)ccc1C(Nc1ccc(C(=O)N2CCC[C@@H](C(=O)O)C2)cc1)C(C)C (stereo partly drawn) [Example 26, (3R)-1-(4-((2-methyl-1-(2-methyl-4-(5-(trifluoromethyl)pyridin-2-yl)phenyl)propyl)amino)benzoyl)piperidine-3-carboxylic acid] | 88
21 | CCc1cnc(-c2ccc(C(Nc3ccc(C(=O)N4CCC[C@@H](C(=O)O)C4)cc3)C(C)C)c(C)c2)nc1 (stereo partly drawn) [Example 112, (3R)-1-(4-((1-(4-(5-ethylpyrimidin-2-yl)-2-methylphenyl)-2-methylpropyl)amino)benzoyl)piperidine-3-carboxylic acid] | 90
